# Legend:
# [1] = tested on: Mycolicibacterium smegmatis; assay: Antitubercular activity against Mycobacterium smegmatis ATCC 700084 after 48 hrs by microdilution assay; type: functional
# [2] = tested on: Mycobacterium tuberculosis; assay: Antitubercular activity against Mycobacterium tuberculosis H37Rv; type: functional
# RWPE-1 = assay: Cytotoxicity against human RWPE-1 cells assessed as cell viability at 50 ug/ml after 72 hrs by MTT assay; type: toxicity, cell-based; conditions: rwpe-1, 72 h, dose 50 µg/ml
SMILES,MIC [1],MIC [2],Activity (RWPE-1)
Nc1ccc2oc3ccccc3c2c1,3.13 µg/mL,64 µg/mL,Toxic
Nc1ccc2[nH]ccc2c1,> 100 µg/mL,–,–
Nc1ccc2c(c1)-c1ccccc1S2(=O)=O,> 100 µg/mL,–,–
CCCCCCNc1ccc2sc3ccccc3c2c1,> 100 µg/mL,–,–
c1ccc2c(c1)sc1ccc(N3CCOCC3)cc12,> 100 µg/mL,–,–
Nc1ccc2sc3ccccc3c2c1,3.13 µg/mL,128 µg/mL,Toxic
c1ccc2c(c1)CCN2c1ccc2sc3ccccc3c2c1,> 100 µg/mL,–,–
O=S(=O)(Nc1ccc2sc3ccccc3c2c1)c1ccccc1,> 100 µg/mL,–,–
Nc1ccc2ccsc2c1,0.78 µg/mL,–,Toxic
Nc1ccc2[nH]c3ccccc3c2c1,> 100 µg/mL,16 µg/mL,–
c1ccc2c(c1)CCCN2c1ccc2sc3ccccc3c2c1,> 100 µg/mL,–,–
CCNc1ccc2sc3ccccc3c2c1,> 100 µg/mL,–,–
Nc1ccc2sccc2c1,0.78 µg/mL,–,Toxic
Nc1ccc2occc2c1,1.56 µg/mL,–,Toxic
CN(c1ccccc1)c1ccc2sc3ccccc3c2c1,> 100 µg/mL,–,–
Nc1ccc2c(c1)-c1cc(N)ccc1S2(=O)=O,> 100 µg/mL,< 2 µg/mL,–
c1ccc(Nc2ccc3sc4ccccc4c3c2)cc1,> 100 µg/mL,–,–
Nc1cccc2c1sc1ccccc12,12.5 µg/mL,–,–
OB(O)c1ccc2sc3ccccc3c2c1,50 µg/mL,–,–
CCN(CC)c1ccc2sc3ccccc3c2c1,> 100 µg/mL,–,–
c1ccc2c(c1)sc1ccc(N3CCCC3)cc12,> 100 µg/mL,–,–
Nc1cccc2sccc12,50 µg/mL,–,–
OB(O)c1cccc2c1sc1ccccc12,> 100 µg/mL,–,–
c1ccc2c(c1)sc1ccc(NC3CCCCC3)cc12,> 100 µg/mL,–,–
c1ccc2c(c1)sc1ccc(-n3cccc3)cc12,> 100 µg/mL,–,–
Nc1ccc2c(c1)-c1ccccc1C2,25 µg/mL,32 µg/mL,–
Nc1ccc2sc3ccc(N)cc3c2c1,> 100 µg/mL,–,–
NNC(=O)c1ccncc1 [ISONIAZID],3.13 µg/mL,–,–

# — ChEMBL document CHEMBL5143614, “Structure-activity relationship of 2-aminodibenzothiophene pharmacophore and the discovery of aminobenzothiophenes as potent inhibitors of Mycobacterium smegmatis” (Bioorg Med Chem Lett, 2022)
